Results on 38 molecules are retold here after patent US9814704B2, “Substituted pyrrolo[2,3-b]pyridines as MLK inhibitors” (The University of Rochester, priority 2008, dated 2017).

pIC50: −log10 of the molar value. Structures can show the parent of a compound that is named as a salt.

The first assay deals with MLK3 (Homo sapiens (Human), UniProt Q16584). Put plainly: Radiometric Filter Plate MLK3 Assay. The conditions noted are these: 200 ng (130 nM) MLK3, 1 μM inactive MKK7b, 2 μM cold ATP (Km), 33P ATP, twenty minute incubation; read-out: MK3 IC50. Type of assay: biochemical. The method, then: Radiometric Filter Plate MLK3 Assay
Sequence of MLK3 (Q16584 whole entry): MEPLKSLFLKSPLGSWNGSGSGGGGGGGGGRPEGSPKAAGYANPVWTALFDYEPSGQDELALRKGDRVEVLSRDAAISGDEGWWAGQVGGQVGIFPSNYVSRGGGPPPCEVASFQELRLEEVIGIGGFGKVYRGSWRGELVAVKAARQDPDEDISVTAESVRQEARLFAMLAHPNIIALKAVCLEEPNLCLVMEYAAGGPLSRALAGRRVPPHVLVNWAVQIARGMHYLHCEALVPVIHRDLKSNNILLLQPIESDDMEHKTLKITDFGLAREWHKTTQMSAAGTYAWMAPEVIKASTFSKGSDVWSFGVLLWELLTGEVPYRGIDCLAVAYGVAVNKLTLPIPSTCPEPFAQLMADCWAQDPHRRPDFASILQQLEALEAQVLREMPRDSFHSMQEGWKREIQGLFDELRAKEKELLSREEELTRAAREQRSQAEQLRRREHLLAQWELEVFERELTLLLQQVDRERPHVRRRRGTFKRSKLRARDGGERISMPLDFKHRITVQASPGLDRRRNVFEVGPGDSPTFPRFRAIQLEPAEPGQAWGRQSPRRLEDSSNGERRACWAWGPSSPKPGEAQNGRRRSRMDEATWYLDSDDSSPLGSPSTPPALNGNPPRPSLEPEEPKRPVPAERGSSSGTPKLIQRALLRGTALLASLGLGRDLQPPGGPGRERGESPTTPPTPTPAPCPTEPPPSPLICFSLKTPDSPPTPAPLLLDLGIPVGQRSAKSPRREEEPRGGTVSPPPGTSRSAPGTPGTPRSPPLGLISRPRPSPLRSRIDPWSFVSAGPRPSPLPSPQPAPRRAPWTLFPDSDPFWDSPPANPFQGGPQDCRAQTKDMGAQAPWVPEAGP
After a twenty minute incubation, the reactions were washed through filter plates and read on a scintillation counter. Results are shown in Table 4 below, in which +++ indicates ≦0.1 μM, ++ indicates >0.1 μM and ≦1 μM, and + indicates >1 μM.
The term pIC50 denotes the negative decadic logarithm of the IC50, by convention in mol/L. Regarding `CC(C)(C)OC(=O)N1CCN(C(=O)c2cccc(-c3cnc4[nH]cc(-c5ccc(C(N)=O)cc5)c4c3)c2)CC1` [Example 151, 4-{3-[3-(4-carbamoyl-phenyl)-1H-pyrrolo[2,3-b]pyridin-5-yl]-benzoyl}-piperazine-1-carboxylic acid tert-butyl ester], the pIC50 is over 7.00.
Same read-out and setting: next, `Nc1ccc(-c2cnc3[nH]c(=O)n(C4CCCC4)c3n2)cn1` [Example 117, 6-(6-aminopyridin-3-yl)-1-cyclopentyl-1H-imidazo[4,5-b]pyrazin-2(3H)-one]: under 6.00.
Turning to `COc1cc(-c2cnc3c(c2)C(Cc2ccc(C(N)=O)cc2)C(=O)N3)cc(OC)c1OC` (centres unmarked) [Example 138, 4-[2-oxo-5-(3,4,5-trimethoxy-phenyl)-2,3-dihydro-1H-pyrrolo[2,3-b]pyridin-3-ylmethyl]-benzamide], the pIC50 is under 6.00.
On the same count and under the same terms, for `CN1CCN(Cc2ccc(-c3cnc4[nH]cc(-c5ccc6[nH]ccc6c5)c4c3)cc2)CC1=O` [Example 141, 4-{4-[3-(1H-indol-5-yl)-1H-pyrrolo[2,3-b]pyridin-5-yl]-benzyl}-1-methyl-piperazin-2-one] the value was over 7.00.
On the same count and under the same terms, next, `Cc1cc(C)cc(-c2cnc3[nH]c(=O)n(-c4ccc5scnc5c4)c3n2)c1` [Example 99, 1-(benzo[d]thiazol-5-yl)-6-(3,5-dimethylphenyl)-1H-imidazo[4,5-b]pyrazin-2(3H)-one]: under 6.00.
The same measure, in the same setting: next, `Nc1ccc(-c2cnc3[nH]cc(-c4ccc(F)c(Cl)c4)c3c2)cn1` [Example 29, 5-(3-(3-chloro-4-fluorophenyl)-1H-pyrrolo[2,3-b]pyridin-5-yl)pyridin-2-amine]: under 6.00; `COc1cc(-c2cnc3[nH]c(=O)n(-c4ccc(N5CCOCC5)nc4)c3n2)cc(OC)c1OC` [Example 109, 1-(6-morpholinopyridin-3-yl)-6-(3,4,5-trimethoxyphenyl)-1H-imidazo[4,5-b]pyrazin-2(3H)-one]: under 6.00.
Consider `COc1cc(-c2cnc3[nH]c(=O)n(-c4ccc5cc[nH]c5c4)c3n2)cc(OC)c1OC` [Example 113, 1-(1H-indol-6-yl)-6-(3,4,5-trimethoxyphenyl)-1H-imidazo[4,5-b]pyrazin-2(3H)-one], for which the pIC50 was over 7.00.
Still for that read-out and setting: next, `COc1cc(-c2cnc3[nH]cc(-c4ccc5[nH]ccc5c4)c3c2)ccc1N` [Example 5, 4-(3-(1H-indol-5-yl)-1H-pyrrolo[2,3-b]pyridin-5-yl)-2-methoxyaniline]: over 7.00; `Nc1ccc(-c2cnc3[nH]cc(-c4ccc5[nH]ccc5c4)c3c2)cc1` [Example 8, 4-(3-(1H-indol-5-yl)-1H-pyrrolo[2,3-b]pyridin-5-yl)aniline]: over 7.00.
The same measure, in the same setting: next, `COc1ccc(-c2cnc3[nH]cc(-c4ccc5[nH]ccc5c4)c3n2)cc1OC` [Example 37, 2-(3,4-dimethoxyphenyl)-7-(1H-indol-5-yl)-5H-pyrrolo[3,2-b]pyrazine]: over 7.00.
The same measure, in the same setting: for `Cc1cc2cc(-n3c(=O)[nH]c4ncc(-c5cc(Cl)cc(Cl)c5)nc43)ccc2[nH]1` [Example 73, 6-(3,5-dichlorophenyl)-1-(2-methyl-1H-indol-5-yl)-1H-imidazo[4,5-b]pyrazin-2(3H)-one] the value was under 6.00.
Consider `O=c1[nH]c2ncc(-c3cc(Cl)cc(Cl)c3)nc2n1CC1CC1` [Example 80, 1-(cyclopropylmethyl)-6-(3,5-dichlorophenyl)-1H-imidazo[4,5-b]pyrazin-2(3H)-one], for which the pIC50 was under 6.00.
Consider `COc1cc(-c2cnc3[nH]c(=O)n(C4CCCC4)c3n2)cc(OC)c1OC` [Example 74, 1-cyclopentyl-6-(3,4,5-trimethoxyphenyl)-1H-imidazo[4,5-b]pyrazin-2(3H)-one], for which the pIC50 was over 7.00.
Consider `O=C1CN(Cc2ccc(-c3cnc4[nH]cc(-c5ccc6[nH]ccc6c5)c4c3)cc2)CCN1` [Example 142, 4-{4-[3-(1H-indol-5-yl)-1H-pyrrolo[2,3-b]pyridin-5-yl]-benzyl}-piperazin-2-one], for which the pIC50 was over 7.00.
Regarding `O=c1[nH]c2ncc(-c3ccncc3)nc2n1-c1ccc2[nH]ccc2c1` [Example 44, 1-(1H-indol-5-yl)-6-(pyridin-4-yl)-1H-imidazo[4,5-b]pyrazin-2(3H)-one], the pIC50 is under 6.00.
The same measure, in the same setting: next, `NC(=O)c1ccc(-c2c[nH]c3ncc(-c4ccc(C(=O)N5CCNCC5)cc4)cc23)cc1` [Example 149, 4-{5-[4-(piperazine-1-carbonyl)-phenyl]-1H-pyrrolo[2,3-b]pyridin-3-yl}-benzamide, hydrochloride salt]: over 7.00.
`COc1cc(-c2cnc3c(c2)C(=Cc2ccccc2)C(=O)N3)cc(OC)c1OC` [Example 130, 3-benzylidene-5-(3,4,5-trimethoxy-phenyl)-1,3-dihydro-pyrrolo[2,3-b]pyridin-2-one]: the pIC50 is under 6.00.
The same measure, in the same setting: next, `Cc1cc(C)cc(-c2cnc3[nH]c(=O)n(-c4ccc5[nH]ccc5c4)c3n2)c1` [Example 46, 6-(3,5-dimethylphenyl)-1-(1H-indol-5-yl)-1H-imidazo[4,5-b]pyrazin-2(3H)-one]: under 6.00; `COc1cc(-c2cnc3[nH]c(=S)n(CC4CC4)c3n2)cc(OC)c1OC` [Example 127, 1-(cyclopropylmethyl)-6-(3,4,5-trimethoxyphenyl)-1H-imidazo[4,5-b]pyrazine-2(3H)-thione]: under 6.00; `COc1cc(-c2cnc3[nH]cc(-c4ccc(C(N)=O)cc4)c3c2)cc(OC)c1OC` [Example 25, 4-(5-(3,4,5-trimethoxyphenyl)-1H-pyrrolo[2,3-b]pyridin-3-yl)benzamide]: over 7.00.
`CC(=O)N1CCN(C(=O)c2ccc(-c3cnc4[nH]cc(-c5ccc6[nH]ccc6c5)c4c3)cc2)CC1` [Example 146, 1-(4-{4-[3-(1H-indol-5-yl)-1H-pyrrolo[2,3-b]pyridin-5-yl]-benzoyl}-piperazin-1-yl)-ethanone]: the pIC50 was over 7.00.

Staying with this assay, now noted: read-out: MK3 IC50.
Turning to `CC(=O)N1CCN(C(=O)c2cccc(-c3cnc4[nH]cc(-c5ccc(C(N)=O)cc5)c4c3)c2)CC1` [Example 153, 4-{5-[3-(4-acetyl-piperazine-1-carbonyl)-phenyl]-1H-pyrrolo[2,3-b]pyridin-3-yl}-benzamide], the pIC50 was 6.00 to 7.00.
`NC(=O)c1ccc(-c2c[nH]c3ncc(-c4ccc(N)nc4)cc23)cc1` [Example 28, 4-(5-(6-aminopyridin-3-yl)-1H-pyrrolo[2,3-b]pyridin-3-yl)benzamide]: the pIC50 was 6.00 to 7.00.
As to `COc1ccc(-c2cnc3[nH]c(=O)n(-c4ccc5[nH]ccc5c4)c3n2)cc1N` [Example 50, 6-(3-amino-4-methoxyphenyl)-1-(1H-indol-5-yl)-1H-imidazo[4,5-b]pyrazin-2(3H)-one], the pIC50 is 6.00 to 7.00.
Turning to `COc1ccc(-c2cnc3[nH]c(=O)n(-c4ccc(O)cc4)c3n2)cc1OC` [Example 115, 6-(3,4-dimethoxyphenyl)-1-(4-hydroxyphenyl)-1H-imidazo[4,5-b]pyrazin-2(3H)-one], the pIC50 was 6.00 to 7.00.
With `O=c1[nH]c2ncc(-c3cccc(O)c3)nc2n1-c1ccc2[nH]ccc2c1` [Example 54, 6-(3-hydroxyphenyl)-1-(1H-indol-5-yl)-1H-imidazo[4,5-b]pyrazin-2(3H)-one], the pIC50 was 6.00 to 7.00.
With `COc1ccc(-c2cnc3[nH]c(=O)n(-c4ccccc4)c3n2)cc1OC` [Example 106, 6-(3,4-dimethoxyphenyl)-1-phenyl-1H-imidazo[4,5-b]pyrazin-2(3H)-one], the pIC50 was 6.00 to 7.00.
Same read-out and setting: next, `Nc1ccc(-c2c[nH]c3ncc(-c4ccc(N)nc4)cc23)cc1` [Example 23, 5-(3-(4-aminophenyl)-1H-pyrrolo[2,3-b]pyridin-5-yl)pyridin-2-amine]: 6.00 to 7.00; `O=c1[nH]c2ncc(-c3cc(F)c(O)cc3F)nc2n1-c1ccc2[nH]ccc2c1` [Example 58, 6-(2,5-difluoro-4-hydroxyphenyl)-1-(1H-indol-5-yl)-1H-imidazo[4,5-b]pyrazin-2(3H)-one]: 6.00 to 7.00.
With `COc1cc(-c2cnc3c(c2)C(=Cc2cccnc2)C(=O)N3)cc(OC)c1OC` (racemic) [Example 128, 3-pyridin-3-ylmethylene-5-(3,4,5-trimethoxy-phenyl)-1,3-dihydro-pyrrolo[2,3-b]pyridin-2-one], the pIC50 was 6.00 to 7.00.
As for `COc1cc(-c2cnc3[nH]c(=O)n(-c4ccc5cn[nH]c5c4)c3n2)cc(OC)c1OC` [Example 90, 1-(1H-indazol-6-yl)-6-(3,4,5-trimethoxyphenyl)-1H-imidazo[4,5-b]pyrazin-2(3H)-one], the pIC50 is 6.00 to 7.00.
Still for that read-out and setting: for `COc1cc(-c2cnc3[nH]cc(-c4ccc5[nH]ccc5c4)c3n2)cc(OC)c1OC` [Example 36, 7-(1H-indol-5-yl)-2-(3,4,5-trimethoxyphenyl)-5H-pyrrolo[3,2-b]pyrazine] the value was over 7.00.
Take `COc1ccc(-c2cnc3[nH]cc(-c4ccc5[nH]ccc5c4)c3c2)cc1OC` [Example 2, 5-(3,4-dimethoxyphenyl)-3-(1H-indol-5-yl)-1H-pyrrolo[2,3-b]pyridine]: the pIC50 was 6.00 to 7.00.
The same measure, in the same setting: next, `COc1cc(-c2cnc3c(c2)C(C)(C)C(=O)N3)cc(OC)c1OC` [Example 120, 3,3-dimethyl-5-(3,4,5-trimethoxyphenyl)-1H-pyrrolo[2,3-b]pyridin-2(3H)-one]: 6.00 to 7.00.
On to `COc1cc(-c2cnc3[nH]c(=O)n(-c4ccc5scnc5c4)c3n2)cc(OC)c1OC` [Example 96, 1-(benzo[d]thiazol-5-yl)-6-(3,4,5-trimethoxyphenyl)-1H-imidazo[4,5-b]pyrazin-2(3H)-one], for which the pIC50 was 6.00 to 7.00.
Take `CN(C)c1ccc(-c2cnc3[nH]cc(-c4ccc5[nH]ccc5c4)c3c2)cn1` [Example 13, 5-(3-(1H-indol-5-yl)-1H-pyrrolo[2,3-b]pyridin-5-yl)-N,N-dimethylpyridin-2-amine]: the pIC50 was 6.00 to 7.00.
In the case of `COc1ccc(-n2c(=O)[nH]c3ncc(-c4cc(OC)c(OC)c(OC)c4)nc32)cc1` [Example 68, 1-(4-methoxyphenyl)-6-(3,4,5-trimethoxyphenyl)-1H-imidazo[4,5-b]pyrazin-2(3H)-one], the pIC50 was 6.00 to 7.00.
